Several values for one entry are separate records, joined by “and”; a condition that tells them apart may be missing. Identical values can stand only once. Ends that are not written are not given here.
Test system: LRF (luteinizing hormone release factor) induced luteinizing hormone (LH) release
Assay: In vitro LRF antagonist test in rat anterior pituitary cell cultures
Format: cell-based
Conditions: for LH Value: culture medium
From the text: Pentapeptides of this invention were screened for LRF antagonist activity in vitro using rat anterior pituitary cell cultures as described by Vale et. al. [Endocrinology, 91, 562 (1972)]. The inhibition of LRF (luteinizing hormone release factor) induced luteinizing hormone (LH) release into the culture medium is the endpoint in this in vitro bioassay.

[1] = compound 1×10^-6 molar, LRF 2.5×10^-10 molar
[2] = compound 1×10^-6 molar, LRF 5×10^-10 molar
[3] = compound 5×10^-6 molar, LRF 5×10^-10 molar

| Molecule | % LH Release Inhibition [1] [%] | LH Value [1] [ng/mL] | % LH Release Inhibition [2] [%] | LH Value [2] [ng/mL] | % LH Release Inhibition [3] [%] | LH Value [3] [ng/mL] | LH Value (LRF alone 2.5×10^-10 molar) | LH Value (LRF alone 2.5×10^-10 molar, listed as LRF control) [ng/mL] | LH Value (LRF alone 5×10^-10 molar) [ng/mL] |
| --- | --- | --- | --- | --- | --- | --- | --- | --- | --- |
| CCNC(=O)C1CCCN1C(=O)[C@@H](C)NC(=O)[C@H](Cc1ccc(OCc2ccccc2)cc1)NC(=O)[C@H](COCc1ccccc1)NC(=O)[C@@H](Cc1c[nH]c2ccccc12)NC(=O)OC(C)(C)C (mixture of isomers) [N^α -t-Butoxycarbonyl-D-tryptophyl-O-benzyl-L-seryl-O-benzyl-L-tyrosyl-D-alanyl-DL-proline N-ethylamide] | 84 | 10.61 | 43 | 34.51 | 90 | 14.02 |  |  |  |
| LRF Control: luteinizing hormone releasing factor, also referred to as luteinizing hormone releasing hormone, or LH-RH; the stimulus in the assay (QHWSYGLRPG; ends and bridges not checked; UniProt P01148 24-33, looked up) [reference compound] |  |  |  |  |  |  | 49.90 ng/mL and 28.52 ng/mL | 51.62 | 52.93 |
| N^α -t-Butoxycarbonyl-N^im -benzyl-L-histidyl-O-benzyl-L-seryl-O-benzyl-L-tyrosyl-D-alanyl-L-leucine methyl ester | 72 | 20.26 |  |  |  |  |  |  |  |
| N^α -t-Butoxycarbonyl-N^im -benzyl-L-histidyl-O-benzyl-L-seryl-O-benzyl-L-tyrosyl-D-alanyl-L-leucyl hydrazide | 71 | 19.35 |  |  |  |  |  |  |  |
